PubChem BioAssay (NCI)
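These data come from cells grown in 96-well plates and exposed to compound for 48 hours at five concentrations. GI50: concentration for 50% inhibition of growth. TGI denotes the concentration required for complete inhibition of growth.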

What was measured:
Assay in all cases: inhibition of tumour cell growth, NCI panel, 48 h
[1] = tested on: SR leukemia
[2] = tested on: OVCAR-5 ovarian
[3] = tested on: MDA-MB-435
[4] = tested on: UACC-257 melanoma
[5] = tested on: CAKI-1 renal
[6] = tested on: M14 melanoma
[7] = tested on: SF-295 CNS
[8] = tested on: HS 578T breast
[9] = tested on: SNB-75 CNS
[10] = tested on: MDA-MB-231 breast
[11] = tested on: SN12C renal
[12] = tested on: PC-3 prostate
[13] = tested on: KM12 colon
[14] = tested on: HCC-2998 colon
[15] = tested on: RXF 393 renal
[16] = tested on: IGROV1 ovarian
[17] = tested on: UACC-62 melanoma
[18] = tested on: SK-OV-3 ovarian
[19] = tested on: LOX IMVI melanoma
[20] = tested on: OVCAR-8 ovarian
[21] = tested on: CCRF-CEM leukemia
[22] = tested on: NCI-H522 lung
[23] = tested on: TK-10 renal
[24] = tested on: SW-620 colon
[25] = tested on: NCI/ADR-RES ovarian
[26] = tested on: SK-MEL-28 melanoma
[27] = tested on: HCT-116 colon
[28] = tested on: HL-60(TB) leukemia
[29] = tested on: HOP-62 NSCLC
[30] = tested on: K-562 leukemia
[31] = tested on: OVCAR-4 ovarian
[32] = tested on: NCI-H460 lung
[33] = tested on: SNB-19 CNS
[34] = tested on: MCF7 breast
[35] = tested on: DU-145 prostate
[36] = tested on: 786-0 renal
[37] = tested on: COLO 205 colon
[38] = tested on: HCT-15 colon
[39] = tested on: ACHN renal
[40] = tested on: SF-268 CNS
[41] = tested on: T-47D breast
[42] = tested on: A498 renal
[43] = tested on: RPMI-8226 leukemia
[44] = tested on: BT-549 breast
[45] = tested on: MALME-3M melanoma
[46] = tested on: MOLT-4 leukemia
[47] = tested on: U251 CNS
[48] = tested on: SF-539 CNS
[49] = tested on: NCI-H226 lung
[50] = tested on: UO-31 renal
[51] = tested on: SK-MEL-2 melanoma
[52] = tested on: HT29 colon
[53] = tested on: OVCAR-3 ovarian
[54] = tested on: A549 NSCLC
[55] = tested on: NCI-H23 lung
[56] = tested on: HOP-92 NSCLC
[57] = tested on: SK-MEL-5 melanoma

Which GI50 [1] does the source give for COc1cc(OC)c(/C=C/c2cc[n+](C)c3ccccc23)c(OC)c1 here?
The GI50 was 1.92 µM.

And the TGI [1]?
Its TGI is > 100 µM.

What about the GI50 [2] of the same molecule?
The GI50 was 3.66 µM.

And the TGI [2]?
The TGI was 38.7 µM.

What about the GI50 [3] of the same molecule?
The GI50 was 1.83 µM.

And the TGI [3]?
The TGI was 7.37 µM.

And the GI50 [4]?
The GI50 was 1.86 µM.

What about the TGI [4] of the same molecule?
Its TGI is 5.98 µM.

What about the GI50 [5] of the same molecule?
The GI50 was 18.3 µM.

And the TGI [5]?
Its TGI is > 100 µM.

And the GI50 [6]?
The GI50 was 2.88 µM.

What about the TGI [6] of the same molecule?
The TGI was 15.8 µM.

What about the GI50 [7] of the same molecule?
Its GI50 is 0.702 µM.

What about the TGI [7] of the same molecule?
Its TGI is 6.48 µM.

What about the GI50 [8] of the same molecule?
Its GI50 is 1.48 µM.

What about the TGI [8] of the same molecule?
Its TGI is 12.4 µM.

What about the GI50 [9] of the same molecule?
The GI50 was 0.932 µM.

And the TGI [9]?
Its TGI is 11.2 µM.

And the GI50 [10]?
The GI50 was 2.77 µM.

And the TGI [10]?
Its TGI is 12.8 µM.

What about the GI50 [11] of the same molecule?
Its GI50 is 1.05 µM.

And the TGI [11]?
Its TGI is 13 µM.

What about the GI50 [12] of the same molecule?
Its GI50 is 1.68 µM.

What about the TGI [12] of the same molecule?
Its TGI is 12.6 µM.

And the GI50 [13]?
Its GI50 is 1.41 µM.

And the TGI [13]?
The TGI was 3.95 µM.

And the GI50 [14]?
Its GI50 is 2.46 µM.

What about the TGI [14] of the same molecule?
Its TGI is 13.9 µM.

What about the GI50 [15] of the same molecule?
The GI50 was 2.66 µM.

What about the TGI [15] of the same molecule?
The TGI was 19.2 µM.

What about the GI50 [16] of the same molecule?
Its GI50 is 3.62 µM.

And the TGI [16]?
The TGI was 25.9 µM.

And the GI50 [17]?
The GI50 was 1.58 µM.

And the TGI [17]?
The TGI was 5.66 µM.

And the GI50 [18]?
The GI50 was 3.32 µM.

What about the TGI [18] of the same molecule?
Its TGI is 17.5 µM.

What about the GI50 [19] of the same molecule?
The GI50 was 1.29 µM.

And the TGI [19]?
Its TGI is 3.15 µM.

What about the GI50 [20] of the same molecule?
The GI50 was 1.62 µM.

And the TGI [20]?
Its TGI is 10.2 µM.

What about the GI50 [21] of the same molecule?
The GI50 was 2.71 µM.

And the TGI [21]?
Its TGI is > 100 µM.

What about the GI50 [22] of the same molecule?
The GI50 was 1.61 µM.

And the TGI [22]?
The TGI was 6.34 µM.

And the GI50 [23]?
Its GI50 is 3.54 µM.

And the TGI [23]?
The TGI was 18.1 µM.

What about the GI50 [24] of the same molecule?
The GI50 was 2.56 µM.

What about the TGI [24] of the same molecule?
The TGI was 16.9 µM.

And the GI50 [25]?
Its GI50 is > 100 µM.

What about the TGI [25] of the same molecule?
Its TGI is > 100 µM.

What about the GI50 [26] of the same molecule?
The GI50 was 2.3 µM.

What about the TGI [26] of the same molecule?
Its TGI is 9.77 µM.

And the GI50 [27]?
Its GI50 is 1.27 µM.

What about the TGI [27] of the same molecule?
Its TGI is 33.7 µM.

What about the GI50 [28] of the same molecule?
Its GI50 is 1.33 µM.

What about the TGI [28] of the same molecule?
Its TGI is 8.58 µM.

And the GI50 [29]?
The GI50 was 3.17 µM.

What about the TGI [29] of the same molecule?
Its TGI is 20.8 µM.

And the GI50 [30]?
The GI50 was 1 µM.

What about the TGI [30] of the same molecule?
Its TGI is > 100 µM.

And the GI50 [31]?
The GI50 was 2.51 µM.

And the TGI [31]?
The TGI was 23 µM.

What about the GI50 [32] of the same molecule?
The GI50 was 0.98 µM.

What about the TGI [32] of the same molecule?
Its TGI is 5.85 µM.

And the GI50 [33]?
Its GI50 is 0.795 µM.

And the TGI [33]?
The TGI was 15.4 µM.

And the GI50 [34]?
The GI50 was 2.7 µM.

And the TGI [34]?
The TGI was > 100 µM.

And the GI50 [35]?
Its GI50 is 2.47 µM.

What about the TGI [35] of the same molecule?
Its TGI is 15.5 µM.

And the GI50 [36]?
The GI50 was 4.4 µM.

What about the TGI [36] of the same molecule?
The TGI was 22.3 µM.

And the GI50 [37]?
The GI50 was 1.23 µM.

What about the TGI [37] of the same molecule?
Its TGI is 2.9 µM.

What about the GI50 [38] of the same molecule?
Its GI50 is 23.3 µM.

And the TGI [38]?
Its TGI is > 100 µM.

What about the GI50 [39] of the same molecule?
Its GI50 is 13.5 µM.

What about the TGI [39] of the same molecule?
Its TGI is > 100 µM.

What about the GI50 [40] of the same molecule?
Its GI50 is 0.691 µM.

And the TGI [40]?
The TGI was 12.8 µM.

What about the GI50 [41] of the same molecule?
The GI50 was 1.72 µM.

And the TGI [41]?
Its TGI is 33.7 µM.

And the GI50 [42]?
The GI50 was 1.24 µM.

What about the TGI [42] of the same molecule?
Its TGI is 6.04 µM.

And the GI50 [43]?
The GI50 was 0.648 µM.

And the TGI [43]?
The TGI was 11.6 µM.

And the GI50 [44]?
Its GI50 is 1.79 µM.

And the TGI [44]?
Its TGI is 13.6 µM.

What about the GI50 [45] of the same molecule?
The GI50 was 1.87 µM.

What about the TGI [45] of the same molecule?
The TGI was 8.04 µM.

What about the GI50 [46] of the same molecule?
The GI50 was 3.19 µM.

And the TGI [46]?
Its TGI is 33.9 µM.

What about the GI50 [47] of the same molecule?
The GI50 was 0.536 µM.

And the TGI [47]?
Its TGI is 11.7 µM.

What about the GI50 [48] of the same molecule?
The GI50 was 2.14 µM.

And the TGI [48]?
Its TGI is 10.9 µM.

What about the GI50 [49] of the same molecule?
Its GI50 is 1.99 µM.

And the TGI [49]?
Its TGI is 17.3 µM.

What about the GI50 [50] of the same molecule?
The GI50 was 17.3 µM.

And the TGI [50]?
Its TGI is > 100 µM.

And the GI50 [51]?
Its GI50 is 2.66 µM.

And the TGI [51]?
The TGI was 6.32 µM.

What about the GI50 [52] of the same molecule?
Its GI50 is 1.94 µM.

What about the TGI [52] of the same molecule?
The TGI was 7.28 µM.

And the GI50 [53]?
Its GI50 is 1.68 µM.

What about the TGI [53] of the same molecule?
The TGI was 7.35 µM.

And the GI50 [54]?
The GI50 was 1.8 µM.

What about the TGI [54] of the same molecule?
Its TGI is 54.6 µM.

And the GI50 [55]?
Its GI50 is 1.74 µM.

And the TGI [55]?
Its TGI is 17.3 µM.

What about the GI50 [56] of the same molecule?
Its GI50 is 1.42 µM.

And the TGI [56]?
Its TGI is 4.7 µM.

And the GI50 [57]?
The GI50 was 0.928 µM.

What about the TGI [57] of the same molecule?
The TGI was 2.39 µM.
